For data set [1], the system named is C57BL/6J mice fed control chow diet (CHD) or high fat diet (HFD). Description: Chronic subcutaneous infusion in mice fed control chow or high fat diet: body growth, glucose homeostasis (IPGTT), insulin secretion, organ weight, liver triglycerides. The format is in vivo, mouse. The method, then:
Six weeks-old C57BL/6J male mice (Janvier Labs, Courtaboeuf, France) were received and acclimated in specific pathogen free (SPF) maintenance condition. Mice had free access to a standard chow diet (R04-40, Safe, Augy, France) and were kept on 12 h light/dark cycle. After one week, a group of 12 mice was fed control carbohydrate diet (CHD) (D 12450Ki, Research diets, NJ) and a group of 12 mice was fed high fat (60% fat and sucrose) diet (HFD) (D12492i, Research diets, NJ).
After three weeks of metabolite treatment (i.e. four weeks of HFD feeding) an intra-peritoneal glucose tolerance test (IPGTT) (2 g/kg) was performed in conscious mice following an overnight fast. Blood was collected from the tail vein before glucose injection and 15, 30, 60 and 120 minutes afterwards. Additional blood samples were collected during the IPGTT in GK rats 15, 90, 180 and 240 minutes after glucose injection. Blood glucose levels were determined using an Accu-Check® Performa (Roche Diagnostics, Meylan, France). Additional blood samples were collected at base line and 30 minutes after glucose injection in Microvette® CB 300 Lithium Heparin (Sarstedt, Marnay, France). Plasma was separated by centrifugation and stored at −80° C. until insulin radioimmunoassay. Evaluation of overall glucose tolerance was obtained from cumulative glycemia (GCum) and the ΔG, which were determined by the total increment of plasma glucose values during the IPGTT (GCum) and the cumulative glycemia during the test above baseline (ΔG). After six weeks of metabolite treatment, mice were killed by decapitation and organ were dissected and weighed. Half of liver, fat and pancreas samples were snap frozen in liquid nitrogen and stored at −80° C. for molecular studies, and the second half processed for histopathology. All procedures were authorized following review by the institutional ethic committee and carried out under national license condition (Ref 00486.02).
Blood glucose was measured using an Accu-Check® Performa (Roche Diagnostics, Meylan, France) and plasma insulin was determined using Insulin ELISA kits (Mercodia, Uppsala, Sweden). For determination of liver triglycerides, liver samples (100 mg) were homogenized and incubated in NonidetP-40 (5%) and supernatants containing triglycerides were collected. Triglycerides concentration was quantified in the supernatant fraction using a colorimetric assay (ab65336, Abcam, Paris, France) by measuring OD at 570 nm. The ratio NAD/NADH was determined using a quantification kit (MAK037; SigmaAldrich, St Quentin, France) on extracts prepared from 20 mg pancreas tissue. Samples were homogenized in the extraction buffer and clarified by centrifugation. Supernatant was deproteinized by filtration through a 10-kDa cutoff spin filter (Millipore SAS, Molsheim, France). The assay was then performed according to the manufacturer's instructions.
As expected, mice fed HFD rapidly gained more weight than mice fed control diet and developed fasting hyperglycemia and marked glucose intolerance (FIG. 1A-1F).

The subject of data set [2] is adipose tissue gene expression. Description: Quantitative RT-PCR in retroperitoneal fat pads of chronically treated mice. The format is in vivo, mouse. How it is done: Transcript abundance of key genes regulating adipose tissue biology was tested by quantitative RT-PCR in retroperitoneal fat pads of mice fed control chow diet (CHD) or high fat diet (HFD). Data were analyzed using the unpaired Mann-Whitney test. […] RNA was extracted from pancreas, adipose tissue and liver using the RNeasy RNA Mini Kit (Qiagen, Courtaboeuf, France). Reverse transcription was performed from a 20 μL reaction mixture with 500 ng RNA using M-MLV reverse transcriptase kit (ThermoFisher, Villebon, France). Quantitative RT-PCR was performed using sequence specific primers and the MESA green kit for SYBR green assays (Eurogentec, Angers, France). We used 18S and/or cyclophilin house keeping genes to normalize relative quantification of mRNA levels using the Livak and […] methods ([…], 2001).

Data set [3] concerns the target dual specificity tyrosine phosphorylation regulated kinase DYRK1A (Homo sapiens, UniProt Q13627). The data set is described as follows: In vitro interaction analysis (DiscoverX) by determination of the EC50.
Where [4] appears, read: mice fed control diet, IPGTT, vs saline.

The structures appear in SMILES notation.

For `Cc1ccc(O)cc1` [4-cresol], in data set [1] (HFD-fed mice), the “effect on body weight” value is “strongly significant”, the “effect on glycemic control” value is “strongly significant”, the “effect on insulin secretion” value is reported as “strongly significant” and the liver weight result is listed as “reduced”. Moreover, in data set [1] (HFD-fed mice, IPGTT, vs HFD saline), the ΔG parameter result is “normalized to the level of mice fed chow diet and treated with saline”. Also, in data set [1] (HFD-fed mice, vs HFD saline), the fasting glycemia entry is given as “strong reduction” and the fasting hyperinsulinemia entry was “strong reduction”. Also, in data set [1] (both diet groups, 6 weeks, vs saline), the “increase in pancreas weight” value was 48.9%. Also, the liver triglycerides content entry in data set [1] (both diet groups, vs saline) is “systematic and dramatic reduction”. For the same compound, in data set [1] (mice fed CHD or HFD, 6 weeks), the heart weight result is listed as “not affected” and the kidney weight entry was “not affected”. Besides, in data set [1] (setting [4]), the “acute glycemic response to the glucose challenge” value was “significant reduction” and the glucose tolerance result is listed as “improved”. Besides, the BMI entry in data set [1] (mice fed control diet, end of experiment, vs saline) is “significant decrease in BMI”. The body weight result in data set [1] (mice fed control diet, s.c. infusion 0.5 mg/kg/day, 42 days, vs saline) is “progressive reduction in body weight”. The glucose-stimulated insulin secretion entry in data set [1] (mice fed control diet, vs controls) is listed as “significant increase”. In addition, the “cumulative glycemia during the IPGTT” value in data set [1] (mice fed control diet, vs saline) was “significant reduction”. Also, in data set [2] (CHD fed mice), the “Ucp1 expression in adipose tissue” value is listed as “markedly downregulated”; the “expression of Sirt1, Cav2, Hsl and Pnpla2 (Atg1) in adipose tissue” value was “significantly stimulated”. In data set [2] (HFD-fed mice, vs HFD saline and CHD 4-cresol), the “Ucp1 expression in adipose tissue” value is reported as “significantly downregulated”. For the same compound, the “expression of Hsl and Pnpla2 in adipose tissue” value in data set [2] (HFD-fed mice, vs saline treated fat fed mice) is “significantly upregulated”. The “binding to DYRK1A” value in data set [3] is reported as “does bind”.

These data come from patent publication US11491117B2, “Compounds for the prevention and treatment of glucose intolerance related conditions and obesity” (SORBONNE UNIVERSITÉ, priority 2017, dated 2022).
